“Also recorded” adds a separate entry of the source.
How the values were obtained:
Type in all cases: cell-based, mouse
TCR signaling = experiment: Western blot of TCR signaling events in CrT-KO CD8 T cells with ATP supplementation; conditions: ATP 100 μM, restimulated with anti-CD3 30 minutes
Protocol: (§1) In some experiments, ATP (adenosine-5′-triphosphate disodium salt hydrate, Cat #A6419, Sigma-Aldrich) was reconstituted in sterile PBS and added to T cell culture (100 μM) for two to three days along with anti-CD3 stimulation, followed by analyzing T cell surface activation marker (CD25) expression using flow cytometry, and analyzing effector cytokine (IFN-γ) secretion using ELISA. In some experiments, T cells were stimulated with anti-CD3 for 48 hours, rested at 4° C. for 2 hours, then restimulated with anti-CD3 for 30 minutes in the presence or absence of ATP supplementation (100 μM) followed by analyzing TCR signaling events using western blot.
Total protein was extracted using RIPA lysis buffer (Thermo Fisher Scientific) supplemented with a phosphatase inhibitor cocktail (Sigma-Aldrich) and a protease inhibitor cocktail (Roche) following the manufacturers' instructions. Nuclear protein was extracted using a Nuclear Protein Extraction Kit (Thermo Fisher Scientific) following the manufacturer's instructions, or using homemade reagents (10 mM HEPES pH 7.9, 10 mM KCl, 0.34 M sucrose, 10% glycerol, 1 mM DTT, 0.1% Triton X-100, 1.5 mM MgCl2 and protease inhibitor cocktail) following a previously established protocol (Ma et al., 2019). Protein concentration was measured by a BCA assay (Cat #23228 and Cat #1859078, Thermo Fisher Scientific). […]

CD8 T cells [1] = experiment: CD8 T cell activation in vitro with ATP supplementation (CD25 flow cytometry, IFN-γ ELISA); conditions: ATP 100 μM, anti-CD3
Protocol: (§2) CD8 T cells were cultured in vitro in standard T cell culture medium comprising RPMI 1640 (Cat #10040, Corning), 10% FBS (Cat #F2442, Sigma), 1% Penicillin-Streptomycin-Glutamine (Cat #10378016, Gibco), 1% MEM Non-Essential Amino Acids Solution (Cat #11140050, Gibco), 1% HEPES (Cat #15630080, Gibco), 1% Sodium Pyruvate (100 mM) (Cat #11360070, Gibco), and 0.05 mM β -Mercaptoethanol (Cat #M3148, Sigma). Unless otherwise indicated, cells were seeded at 0.5×10^6 cells per well in 24-well plates and stimulated with plate-bound anti-CD3 (5 μg/ml) (clone 145-2C11), for up to 5 days. At indicated time point(s), cells were collected and analyzed for CrT mRNA expression using qPCR, for cell proliferation through cell counting, for viability through Annexin V/7-AAD staining followed by flow cytometry analysis, for surface activation marker (CD25) expression through surface staining followed by flow cytometry analysis, for effector molecule (Granzyme B, IL-2, and IFN-γ) production through intracellular staining followed by flow cytometry analysis, and for cytokine (IL-2 and IFN-γ) secretion through collecting cell culture supernatants followed by ELISA analysis. CrT protein expression and TCR signaling events were analyzed using western blot analysis.
as §1
ELISA was performed for the detection of cytokines according to a BD Biosciences protocol. […] The absorbance was measured at 450 nm using an Infinite M1000 microplate reader (Tecan).

CD8 T cells [2] = experiment: CD8 T cell activation with AICAR treatment (CD25 flow cytometry, IL-2 ELISA); conditions: CrT-WT and CrT-KO CD8 T cells; AICAR 250 μM; anti-CD3 16 hours
Protocol: as §2, with “blot analysis. […]” for “blot analysis.”

AMPK = experiment: Western blot of AMPK and TCR signaling events in CD8 T cells with AICAR treatment
Protocol: In some other experiments, AICAR (5-aminoimidazole-4-carboxamide 1-β-D-ribofuranoside, Cat #A9978, Sigma-Aldrich), an AMPK activator, was reconstituted in DMSO and used to pretreat T cells for 30 minutes, at the concentration of 2 mM followed by 20 minutes of anti-CD3 stimulation for western blot analysis of TCR signaling events, or at the concentration of 250 μM followed by 16 hours of anti-CD3 stimulation for flow cytometry analysis of CD25 expression and ELISA analysis of IL-2 production.
Total protein was extracted using RIPA lysis buffer (Thermo Fisher Scientific) supplemented with a phosphatase inhibitor cocktail (Sigma-Aldrich) and a protease inhibitor cocktail (Roche) following the manufacturers' instructions. Nuclear protein was extracted using a Nuclear Protein Extraction Kit (Thermo Fisher Scientific) following the manufacturer's instructions, or using homemade reagents (10 mM HEPES pH 7.9, 10 mM KCl, 0.34 M sucrose, 10% glycerol, 1 mM DTT, 0.1% Triton X-100, 1.5 mM MgCl2 and protease inhibitor cocktail) following a previously established protocol (Ma et al., 2019). Protein concentration was measured by a BCA assay (Cat #23228 and Cat #1859078, Thermo Fisher Scientific). Equal amounts of protein were resolved on a 12% SDS-PAGE gel and then transferred to a PVDF membrane by electrophoresis. The following anti-mouse antibodies were purchased from Cell Signaling Technology and used to blot for the protein of interest: p-Zap-70 (cat #2705S; clone 99F2); Zap-70 (cat #2717S; clone Y319); p-Lck (cat #2751S; clone Y505); Lck (cat #2752S); p-c-Jun (cat #9261S; clone S63); NFAT (cat #4389S); NF-κB p65 (cat #8242P; clone D14E12); AMPK (cat #5831T; clone D5A2); p-AMPK (cat #2535T; clone 40H9), secondary anti-mouse (cat #7076P2), and secondary anti-rabbit (cat #7074P2). Anti-mouse CrT (SLC6A8) (cat #PA5-37060) was purchased from Thermo Fisher Scientific. β-Actin (Santa Cruz Biotechnology Inc.; cat #sc-69879; clone AC-15) was used as an internal control for total protein extracts, while Lamin A (Santa Cruz Biotechnology; cat #sc-71481; clone 4A58) was used as an internal control for nuclear protein extracts. Signals were visualized with autoradiography using an ECL system (Cat #RPN2232, Thermo Fisher Scientific). Data analysis was performed using ImageJ software (NIH).

Compound	TCR signaling deficiencies (TCR signaling)	effector cytokine IFN-γ production (CD8 T cells [1]; CrT-KO CD8 T cells, day 3)	surface activation marker CD25 expression (CD8 T cells [1]; CrT-KO CD8 T cells, day 3)	activation of CD8 T cells (CD25) (CD8 T cells [1]; CrT-WT CD8 T cells, 48 hours, disodium salt hydrate)	cell surface activation marker expression (CD25) (CD8 T cells [2])	effector cytokine production (IL-2) (CD8 T cells [2])	activation of NFAT (AMPK; CD8 T cells, AICAR 2 mM)	activation of Zap-70 (AMPK; CD8 T cells, AICAR 2 mM)	AP-1 transcription factor activation (c-Jun subunit) (AMPK; CrT-WT and CrT-KO CD8 T cells, AICAR 2 mM)	AMPK activation (AMPK; CrT-WT and CrT-KO CD8 T cells, AICAR 2 mM pretreatment 30 minutes)
Nc1ncnc2c1ncn2[C@@H]1O[C@H](COP(=O)([O-])OP(=O)([O-])OP(=O)(O)O)[C@@H](O)[C@H]1O.O.[Na+].[Na+] [ATP, adenosine-5′-triphosphate disodium salt hydrate]	effectively rescued	enhanced production	increased expression	further increased the activation; also recorded: further enhanced the activation						
NC(=O)c1ncn([C@@H]2O[C@H](CO)[C@@H](O)[C@H]2O)c1N [AICAR, 5-aminoimidazole-4-carboxamide 1-β-D-ribofuranoside]					significant reduction	significant reduction	not affected	not affected	significant reduction	markedly activated AMPK
